Test results as given in US10806142B2, “2-amino-5-ketoxime-pyrimidine derivatives and their use for controlling undesired plant growth” (Bayer CropScience Aktiengesellschaft, priority 2015, dated 2020).

Columns and labels:
[1] = logp (HCOOH), physicochemical characterization; settings: HCOOH (formic acid)
[2] = tested on: Ipomoea purpurea; test: Post-emergence herbicidal effect; format: in vivo; settings: visual score after about 3 weeks
Method: (§1) [table] 2. Post-Emergence Herbicidal Effect and Crop Plant Compatibility Seeds of monocotyledonous and dicotyledonous weed and crop plants are laid out in sandy loam in wood-fiber pots, covered with soil and cultivated in a greenhouse under good growth conditions. 2 to 3 weeks after sowing, the test plants are treated at the one-leaf stage. The compounds of the invention, formulated in the form of wettable powders (WP) or as emulsion concentrates (EC), are then sprayed onto the green parts of the plants as aqueous suspension or emulsion at a water application rate equating to 600 to 800 L/ha with addition of 0.2% wetting agent. After the trial plants have been left to stand in a greenhouse under optimal growth conditions for about 3 weeks, the efficacy of the formulations is scored visually in comparison to untreated controls (herbicidal action in percent (%): 100% efficacy=the plants have died, 0% efficacy=like control plants).

[3] = tested on: Setaria viridis; test: Post-emergence herbicidal effect; format: in vivo; settings: visual score after about 3 weeks
Method: as §1

[4] = tested on: Amaranthus retroflexus; test: Post-emergence herbicidal effect; format: in vivo; settings: visual score after about 3 weeks
Method: as §1

[5] = tested on: Viola tricolor; test: Post-emergence herbicidal effect; format: in vivo; settings: visual score after about 3 weeks
Method: as §1

[6] = tested on: Abutilon theophrasti; test: Pre-emergence herbicidal effect; format: in vivo; settings: dosage 320 g a.i./ha
Excerpt: (§2) 1. Pre-Emergence Herbicidal Effect and Crop Plant Compatibility Seeds of monocotyledonous and dicotyledonous weed plants and crop plants are laid out in wood-fiber pots in sandy loam and covered with soil. The compounds of the invention, formulated in the form of wettable powders (WP) or as emulsion concentrates (EC), are then applied to the surface of the covering soil as aqueous suspension or emulsion at a water application rate equating to 600 to 800 L/ha with addition of 0.2% wetting agent. After the treatment, the pots are placed in a greenhouse and kept under good growth conditions for the trial plants. The damage to the trial plants is scored visually after a trial duration of 3 weeks by comparison with untreated controls (herbicidal activity in percent (%): 100% efficacy=the plants have died, 0% efficacy=like control plants). [table]

[7] = tested on: Setaria viridis; test: Pre-emergence herbicidal effect; format: in vivo
Excerpt: as §2

[8] = tested on: Echinochloa crus-galli; test: Pre-emergence herbicidal effect; format: in vivo
Excerpt: as §2

[9] = tested on: Alopecurus myosuroides; test: Pre-emergence herbicidal effect; format: in vivo
Excerpt: as §2

[10] = tested on: Veronica persica; test: Pre-emergence herbicidal effect; format: in vivo
Excerpt: as §2

[11] = tested on: Amaranthus retroflexus; test: Pre-emergence herbicidal effect; format: in vivo
Excerpt: as §2

[12] = tested on: Matricaria inodora; test: Pre-emergence herbicidal effect; format: in vivo
Excerpt: as §2

[13] = tested on: Stellaria media; test: Pre-emergence herbicidal effect; format: in vivo
Excerpt: as §2

[14] = tested on: Avena fatua; test: Pre-emergence herbicidal effect; format: in vivo; settings: dosage 320 g a.i./ha
Excerpt: as §2

[15] = tested on: Polygpnum convolvulus; test: Pre-emergence herbicidal effect; format: in vivo
Excerpt: as §2

[16] = tested on: Viola tricolor; test: Pre-emergence herbicidal effect; format: in vivo
Excerpt: as §2

[17] = tested on: Stellaria media; test: Post-emergence herbicidal effect; format: in vivo; settings: visual score after about 3 weeks
Method: as §1

[18] = tested on: Polygpnum convolvulus; test: Post-emergence herbicidal effect; format: in vivo; settings: visual score after about 3 weeks
Method: as §1

[19] = tested on: Cyperus esculentus; test: Pre-emergence herbicidal effect; format: in vivo; settings: dosage 320 g a.i./ha
Excerpt: as §2

[20] = tested on: Cyperus esculentus; test: Post-emergence herbicidal effect; format: in vivo; settings: dosage 320 g a.i./ha, visual score after about 3 weeks
Method: as §1

[21] = tested on: Abutilon theophrasti; test: Post-emergence herbicidal effect; format: in vivo; settings: visual score after about 3 weeks
Method: as §1

[22] = tested on: Lolium multiflorum; test: Post-emergence herbicidal effect; format: in vivo; settings: dosage 320 g a.i./ha, visual score after about 3 weeks
Method: as §1

[23] = tested on: Matricaria inodora; test: Post-emergence herbicidal effect; format: in vivo; settings: visual score after about 3 weeks
Method: as §1

Structure (SMILES) | chromatographic logP [1] | Herbicidal activity against PHBPU ([2]; dosage 320 g a.i./ha) [%] | Herbicidal activity against SETVI ([3]; dosage 320 g a.i./ha) [%] | Herbicidal activity against AMARE ([4]; dosage 320 g a.i./ha) [%] | Herbicidal activity against VIOTR ([5]; dosage 80 g a.i./ha) [%] | Herbicidal activity against VIOTR ([5]; dosage 320 g a.i./ha) [%] | Herbicidal activity against SETVI ([7]; dosage 320 g a.i./ha) [%] | Herbicidal activity against ECHCG ([8]; dosage 320 g a.i./ha) [%] | Herbicidal activity against VERPE ([10]; dosage 80 g a.i./ha) [%] | Herbicidal activity against VERPE ([10]; dosage 320 g a.i./ha) [%] | Herbicidal activity against AMARE ([11]; dosage 80 g a.i./ha) [%] | Herbicidal activity against AMARE ([11]; dosage 320 g a.i./ha) [%] | Herbicidal activity against MATIN ([12]; dosage 80 g a.i./ha) [%] | Herbicidal activity against MATIN ([12]; dosage 320 g a.i./ha) [%] | Herbicidal activity against STEME ([13]; dosage 80 g a.i./ha) [%] | Herbicidal activity against STEME ([13]; dosage 320 g a.i./ha) [%] | Herbicidal activity against POLCO ([15]; dosage 80 g a.i./ha) [%] | Herbicidal activity against POLCO ([15]; dosage 320 g a.i./ha) [%] | Herbicidal activity against VIOTR ([16]; dosage 80 g a.i./ha) [%] | Herbicidal activity against VIOTR ([16]; dosage 320 g a.i./ha) [%] | further results
CC/C(=N\O)c1cnc(N[C@H]2c3cc(C)ccc3C[C@@H]2C)nc1CC [Compound 1.40a, N-[(1R,2S)-2,6-Dimethyl-2,3-dihydro-1H-inden-1-yl]-4-ethyl-5-[(1E)-N-hydroxypropanimidoyl]pyrimidine-2-amine] | 3.71 | 100 | 100 | 90 | 90 | 90 | 100 | 100 | 100 | 100 | 100 | 100 | 90 | 100 | 100 | 100 | 100 | 100 | 100 | 100 | Herbicidal activity against PHBPU ([2]; dosage 80 g a.i./ha): 80%; Herbicidal activity against SETVI ([3]; dosage 80 g a.i./ha): 100%; Herbicidal activity against AMARE ([4]; dosage 80 g a.i./ha): 90%; Herbicidal activity against ABUTH [6]: 100%; Herbicidal activity against SETVI ([7]; dosage 80 g a.i./ha): 100%; Herbicidal activity against ECHCG ([8]; dosage 80 g a.i./ha): 90%; Herbicidal activity against ALOMY ([9]; dosage 80 g a.i./ha): 90%; Herbicidal activity against ALOMY ([9]; dosage 320 g a.i./ha): 100%; Herbicidal activity against AVEFA [14]: 100%
CC/C(=N/O)c1cnc(N[C@H]2c3cc(C)ccc3C[C@@H]2C)nc1CC [Compound 1.40b, N-[(1R,2S)-2,6-dimethyl-2,3-dihydro-1H-inden-1-yl]-4-ethyl-5-[(1Z)-N-hydroxypropanimidoyl]pyrimidine-2-amine] | 3.86 | 90 | 90 | 100 | 90 | 90 | 100 | 100 | 100 | 100 | 100 | 100 | 90 | 100 | 90 | 100 | 100 | 100 | 100 | 100 | Herbicidal activity against PHBPU ([2]; dosage 80 g a.i./ha): 80%; Herbicidal activity against AMARE ([4]; dosage 80 g a.i./ha): 90%; Herbicidal activity against STEME ([17]; dosage 80 g a.i./ha): 70%; Herbicidal activity against STEME ([17]; dosage 320 g a.i./ha): 80%; Herbicidal activity against POLCO ([18]; dosage 80 g a.i./ha): 80%; Herbicidal activity against POLCO ([18]; dosage 320 g a.i./ha): 80%; Herbicidal activity against CYPES [19]: 100%; Herbicidal activity against SETVI ([7]; dosage 80 g a.i./ha): 100%; Herbicidal activity against ECHCG ([8]; dosage 80 g a.i./ha): 90%; Herbicidal activity against ALOMY ([9]; dosage 320 g a.i./ha): 80%; Herbicidal activity against AVEFA [14]: 90%
C/C(=N/Oc1ccc(F)cc1)c1cnc(N[C@H]2c3cc(C)ccc3C[C@@H]2C)nc1 [Compound 1.101b, N-[(1R,2S)-2,6-dimethyl-2,3-dihydro-1H-inden-1-yl]-5-[(1Z)-N-(4-fluorophenoxy)ethanimidoyl]pyrimidine-2-amine] | 5.56 | 100 | – | 90 | 90 | 90 | 100 | 90 | 100 | 100 | 90 | 100 | 80 | 100 | 100 | 100 | – | 100 | 90 | 100 | Herbicidal activity against CYPES [20]: 100%; Herbicidal activity against ABUTH ([21]; dosage 80 g a.i./ha): 80%; Herbicidal activity against ABUTH ([21]; dosage 320 g a.i./ha): 100%; Herbicidal activity against LOLMU [22]: 100%; Herbicidal activity against MATIN ([23]; dosage 320 g a.i./ha): 100%; Herbicidal activity against STEME ([17]; dosage 80 g a.i./ha): 80%; Herbicidal activity against STEME ([17]; dosage 320 g a.i./ha): 90%; Herbicidal activity against POLCO ([18]; dosage 80 g a.i./ha): 80%; Herbicidal activity against POLCO ([18]; dosage 320 g a.i./ha): 100%
CCO/N=C(/C)c1cnc(N[C@H]2c3cc(C)ccc3C[C@@H]2C)nc1 [Compound 1.103b, N-[(1R,2S)-2,6-dimethyl-2,3-dihydro-1H-inden-1-yl]-5-[(1Z)-N-ethoxyethanimidoyl]pyrimidine-2-amine] | 4.92 | 90 | 80 | – | 90 | 100 | 90 | 100 | 100 | 100 | 80 | 100 | 100 | 100 | 100 | 100 | 100 | 100 | 100 | 100 | Herbicidal activity against CYPES [20]: 80%; Herbicidal activity against ABUTH ([21]; dosage 80 g a.i./ha): 90%; Herbicidal activity against ABUTH ([21]; dosage 320 g a.i./ha): 100%; Herbicidal activity against MATIN ([23]; dosage 80 g a.i./ha): 80%; Herbicidal activity against MATIN ([23]; dosage 320 g a.i./ha): 100%; Herbicidal activity against STEME ([17]; dosage 80 g a.i./ha): 80%; Herbicidal activity against STEME ([17]; dosage 320 g a.i./ha): 90%; Herbicidal activity against POLCO ([18]; dosage 80 g a.i./ha): 90%; Herbicidal activity against POLCO ([18]; dosage 320 g a.i./ha): 100%
